Experimental data published in patent publication US20230046078A1, “METHODS OF USING SUBSTITUTED FLAVONES FOR TREATING BONE DISORDERS” (EMORY UNIVERSITY, priority 2021, published 2023).
“Also recorded” adds a separate entry of the source.

Key:
MC3T3-E1 cells [1] = assay: ELISA of OPG and RANK-L secreted into the medium of MC3T3 cells; type: cell-based, Murine
Text: FIG. 9, Panel A contains representative images of ALP staining in […] cells treated with BDNF or 7,8-DHF combined with or without K252a for 14 days (n=3 independent experiments) (Scale bar, 5 mm (upper panel), 200 μm (lower panel)). […] FIG. 9, Panel C contains Western blots for MC3T3 cells cultured in complete medium or osteogenic induction medium (OIM) with BDNF or 7,8 DHF combined with or without K252a for 4 days. […] FIG. 9, Panel D contains graphs of the relative protein levels of C/EBPP, p-C/EBPβ, AEP, RANK-L, OPG, Osterix, p-TrkB/TrkB and p-Akt/AKT in MC3T3 cells cultured in the complete medium or OIM with BDNF or 7,8-DHF combined with or without K252a for four days. Data are shown as mean±SEM of three independent experiments, one-way ANOVA. Data are shown in each graph from left to right as 1) Control, 2) OIM+DMSO, 3) OIM+BDNF, 4) OIM+7,8-DHF, 5) OIM+BDNF+K252a, and 6) OIM+7,8-DHF+K252a. FIG. 9, Panel E contains graphs of an AEP enzymatic activity assay. BDNF and 7,8-DHF inhibit AEP activities, and K252a abolish BDNF and 7,8-DHF's effects. Data are shown as mean±SEM of 3 independent experiments, one-way ANOVA. Data are shown in each graph from left to right as 1) Control, 2) OIM+DMSO, 3) OIM+BDNF, 4) OIM+7,8-DHF, 5) OIM+BDNF+K252a, and 6) OIM+7,8-DHF+K252a. FIG. 9, Panel F contains graphs of qPCR results showing that OPG mRNA expression increases in MC3T3 cells after 7,8-DHF treatment for four days. Data are shown as mean±SEM of three independent experiments, one-way ANOVA. Data are shown in each graph from left to right as 1) Control, 2) OIM+DMSO, 3) OIM+BDNF, 4) OIM+7,8-DHF, 5) OIM+BDNF+K252a, and 6) OIM+7,8-DHF+K252a. FIG. 9, Panel G contains graphs showing that 7,8-DHF increases OPG and decreases the RANK-L/OPG ratio. Levels of OPG and RANK-L proteins secreted into the medium were measured by ELISA. Data are shown as mean±SEM of 3 independent experiments, one-way ANOVA. Data are shown in each graph from left to right as 1) Control, 2) OIM+DMSO, 3) OIM+BDNF, 4) OIM+7,8-DHF, 5) OIM+BDNF+K252a, and 6) OIM+7,8-DHF+K252a.

AEP = AEP activity assay on MC3T3-E1 cell lysates; type: cell-based, Murine
Experimental: Cell lysates (10 μg) were incubated in 200 μl assay buffer (20 mM citric acid, 60 mM Na2HPO4, 1 mM EDTA, 0.1% CHAPS, and 1 mM DTT, pH 6.0) containing 20 μM δ-secretase substrate Z-Ala-Ala-Asn-AMC (Bachem, Bubendorf, Switzerland). AMC released by substrate cleavage was quantified by measuring at 460 nm in a fluorescence plate reader at 37° C. for 2 h in kinetic mode.

MC3T3-E1 cells [2] = type: cell-based, Murine
Experimental: Total RNA was isolated by TRIzol (Life Technologies, Carlsbad, Calif.). Reverse transcription was performed with SuperScript III reverse transcriptase (Life Technologies). Gene-specific primers and probes were designed and bought from Taqman (Life Technologies). All real-time PCR reactions were performed using the ABI 7500-Fast Real-Time PCR System and the Taqman Universal Master Mix Kit (Life Technologies). The relative quantification of gene expression was calculated using the ΔΔCt method. Predesigned real-time PCR primers from Applied Biosystems (Waltham, Mass.) were used for the analysis of Opg (Tnfrsf11b; Mm0043545_m1), RANK-L (Tnfsf11; Mm00441908_m1), AEP (Lgmn; Mm01325350_m1), GAPDH (Gapdh; Mm99999915_g1).

MC3T3-E1 cells [3] = type: cell-based, Murine; remark: listed apart in the source
[4] = test system: ovariectomized (OVX) WT mice; assay: H&E, TRAP staining and histomorphometry of distal femur in OVX WT mice, R13 versus anti-RANK-L antibody; type: in vivo; conditions: WT mice after OVX
Experimental: (§1) Female C57BL6/J wild-type mice and BDNF+/−mice were obtained from Jackson Laboratory (MMRRC stock #000664 and 002267), then held and bred. The AEP knockout mice were generated on a mixed C57BL/6 and 129/Ola background. All in vivo experiments were carried out in female mice. All mice were kept under specific pathogen-free conditions in an environmentally controlled clean room and housed at 22° C. on a 12-h/12-h light/dark cycle. Food and water were provided ad lib. WT, BDNF+/−mice, AEP WT and AEP knockout mice were bilaterally ovariectomized or sham operated at 12 weeks of age. One week after ovariectomy, the WT and BDNF+/−mice received vehicle or R13 dissolved in 5% DMSO/0.5% methylcellulose at dose of 21.8 mg/kg/d, six days per week, for 8 weeks by gavage. In another group, 4 weeks after ovariectomy, WT mice were treated with IgG or anti-RANK-L monoclonal antibody (10 mg/kg, twice per week) by single subcutaneous injection for 4 weeks.
(§2) The measurements, indices and units for histomorphometric analysis were recommended by the Nomenclature Committee of the American Society of Bone and Mineral Research. Mice were injected with calcein (25 μg/g) subcutaneously at day 10 and day 3 before sacrifice. Bone histomorphometric analysis was performed at the University of Alabama at Birmingham Center for Metabolic Bone Disease-Histomorphometry and Molecular Analysis Core Laboratory. The Goldner's trichrome-stained plastic-embedded sections of calcein-double labeled femora of the mice were analyzed by an operator blinded as to the nature of the samples.
Representative data of double labeling of the trabecular bone in WT mice with OVX after R13 or anti-RANK-L antibody treatment are provided in FIG. 14, Panel C.

[5] = test system: ovariectomized (OVX) WT and BDNF+/− mice; type: in vivo
[6] = test system: ovariectomized (OVX) WT and BDNF+/− mice; assay: H&E, TRAP staining and quantitative bone histomorphometry of distal femur in OVX WT and BDNF+/− mice treated with R13; type: in vivo
Experimental: as §1, §2
To further explore the roles of BDNF signaling in bone resorption and formation after OVX, hematoxylin and eosin (H&E) staining was conducted to analyze bone morphology and white edipocytes in both WT and BDNF+/−mice after OVX surgery. […] These observations were also validated by the single and double-labeled surface and inter-label thickness analysis (FIG. 7). […] Treatments with R13 inhibited N.Oc/BS in both WT and BDNF+/−mice after OVX.

[7] = test system: ovariectomized (OVX) WT mice; assay: Serum markers in OVX WT mice, R13 versus anti-RANK-L antibody; type: in vivo
Experimental: as §1
Serum Osteocalcin (Novus Biologicals, Littleton, Colo., Cat. NBP2-68151), CTX (Immunodiagnostic systems, East Boldon, UK, Cat. AC-06F1), RANK-L and OPG (Abcam, Cat. ab269553 and ab203365) were measured by specific Elisa assays.
Given that R13 protects the bone by increase OPG, the RANK-L antibody was used as a comparator drug. Four weeks after ovariectomy, WT mice were treated with IgG or anti-RANK-L monoclonal antibody consecutively for 4 weeks.

[8] = test system: ovariectomized (OVX) WT and BDNF+/− mice; type: in vivo; remark: listed apart in the source
WT mice = conditions: mouse, in vivo
[9] = OVX mice, R13 21.8 mg/kg orally, eight weeks, vs vehicle control
[10] = […], R13 21.8 mg/kg orally, eight weeks, compared to OVX group
[11] = among the groups regardless of the treatment
[12] = OVX WT and BDNF+/− mice upon R13 treatment

## COC(=O)[C@@]1(O)C[C@H]2O[C@]1(C)n1c3ccccc3c3c4c(c5c6ccccc6n2c5c31)C(=O)NC4 [K252a]
MC3T3-E1 cells [1]; K252a 100 nM pretreatment
  RANK-L/OPG ratio in BDNF and 7,8-DHF groups under K252a: highly augmented
AEP; K252a 100 nM pretreatment
  BDNF and 7,8-DHF's effects on AEP activities under K252a: abolish
MC3T3-E1 cells [2]; K252a 100 nM pretreatment
  BDNF/7,8-DHF-elevated RANK-L mRNAs under K252a: not affected
  BDNF/7,8-DHF-promoted OPG mRNA levels under K252a: abolished
MC3T3-E1 cells [3]; K252a 100 nM pretreatment
  effects triggered by BDNF or 7,8-DHF (Western blot) under K252a: potently blunted

## CNC(=O)Oc1ccc2c(=O)cc(-c3ccccc3)oc2c1OC(=O)NC [R13, 4-oxo-2-phenyl-4H-chromene-7,8-diyl bis(methylcarbamate)]
[4]
  OVX-induced osteoclast cells (TRAP staining): diminished
  trabecular bone marrow density (H&E staining): increased
  white adipocyte contents in the bone (H&E staining): decreased
[4]; distal femur trabecular bone
  BFR/BS: significantly increased
  N.Oc/BS: decreased
[5]; OVX mice, both types, R13 21.8 mg/kg orally, eight weeks, vs OVX group
  trabecular spacing (Tb.Sp): decreased
[5]; [9]
  trabecular number (Tb.N): higher
  trabecular thickness (Tb.Th): higher
[5]; [10]
  connectivity density (Conn.D): higher
  structure model index (SMI): lower
[5]; […], R13 21.8 mg/kg orally, six days per week for eight weeks, compared to OVX group
  trabecular bone volume fraction (BV/TV): higher
[5]; after OVX, overall conclusion
  bone density: strongly increase
[5]; among the groups, R13 21.8 mg/kg orally
  relative cortical bone area to tissue area (Ct.Ar/Tt.Ar): remained unchanged
[5]; mouse, in vivo, po, 21.8 mg/kg
  average cortical thickness (Ct.Th): escalated
  cortical bone cortical area (Ct.Ar): escalated
[6]; R13 treatment
  OVX-induced bone loss: attenuated; also recorded: greatly blocks
[6]; WT and BDNF+/− mice
  OVX-induced osteoclast cells (TRAP staining): diminished
[6]; WT and BDNF+/− mice after OVX
  N.Oc/BS: inhibited
[6]; after OVX, WT and BDNF+/− mice
  adipocyte content in the bone (H&E staining): decreased
  trabecular bone tissue (H&E staining): increased
[6]; after OVX, vehicle vs R13
  bone formation rate (BFR): vehicle-treated mice exhibited lower MAR and BFR as compared to R13-treated mice
  mineral apposition rate (MAR): vehicle-treated mice exhibited lower MAR and BFR as compared to R13-treated mice
[6]; [11]
  MS/BS ratio: remained comparable
  percentage of surfaces covered by OCs (Oc.S/BS): remained comparable
[6]; vehicle and R13-treated mice
  N.Ob/BS: no significant differences
  ObS/BS: no significant differences
[7]
  serum OPG: robustly elevated
  serum RANK-L: without altering
  serum RANK-L/OPG ratio: significant reduction
[8]; [12]
  RANK-L/OPG ratio (serum): significant reduction
  serum OPG: substantially increased
[8]; R13-treated OVX mice compared to sham group
  serum CTX levels: higher
[8]; R13-treated OVX mice compared with vehicle-treated sham group
  serum osteocalcin: increased
[8]; among the groups
  serum BDNF levels: remained equivalent
WT mice
  BV/TV: elevated
  Conn.D.: no significant difference
  Ct.Ar: no significant difference
  Ct.Th: no significant difference
  SMI: no significant difference
  Tb.N: no significant difference
  Tb.Sp: no significant difference
  Tb.Th: no significant difference
  serum BDNF: no significant difference
  serum CTX: no significant difference
  serum OPG level: significantly increased
  serum RANK-L: without affecting; also recorded: no significant difference
  serum RANK-L/OPG ratio: no significant difference
  serum osteocalcin: no significant difference

## BDNF: Brain-derived neurotrophic factor, a neurotrophin; TrkB ligand
MC3T3-E1 cells [1]; OIM, vs OIM alone
  OPG protein secreted into the medium: further augmented
  RANK-L protein secreted into the medium: further augmented
  RANK-L/OPG ratio (ELISA): OIM alone were significantly higher than BDNF and 7,8-DHF
AEP; MC3T3 cells in OIM, substrate Z-Ala-Ala-Asn-AMC
  AEP protease activities: greatly blocked; also recorded: inhibit
MC3T3-E1 cells [2]; OIM, four days
  OPG mRNA levels: strong stimulatory effect
  RANK-L mRNA: elevated
MC3T3-E1 cells [3]; OIM, 4 days
  AEP expression: diminished
  OPG protein (Western blot): augmentation
  RANK-L protein (Western blot): augmentation
